Patent US8686178B2, “Derivative of 18β-glycyrrhetinic acid apt to suppress cancer cells” (Kaohsiung Medical University, priority 2011, dated 2014)

Key:
NTUB1 cells [1] = test: Trial (F): mitochondrial membrane potential (JC-1) by flow cytometry; assay type: cell-based, human; conditions: 10 μM, 30 minutes, JC-1, NTUB1
Procedure: In trial (F), mitochondrial membrane potential (MMP) in NTUB1 cells is measured according to a journal article published by Martin et al., at 2009 in PloS one, in which a dysfunction of the mitochondria caused by ROS induced MPP decrease is supposed.
Referring to TABLE 6, the NTUB1 cells at a density of 3×10^5 cells/ml are prepared and assigned into 5 groups, including F1 to F5, to incubate in 10 μM carbonyl cyanide 3-chlorophenylhydrazone (CCCP), and 10, 25 and 50 μM of 25 respectively, for 30 minutes, followed by adding 1 μM of 5,5′,6,6′-tetrachloro-1,1′,3,3′-tetraethylbenzimidaolylcarbocyanine iodide (JC-1) (Molecular Probes, Eugene, Oreg., USA) in each group. Then, the NTUB1 cells in each group are washed with PBS buffer for 3 times, collected in PBS/2% BSA, washed twice by centrifugating at 800 g, 5 minutes and resuspending in 0.3 mL PBS/2% BSA, and finally analyzed by a FACSCalibur flow cytometer (Becton Dickinson), with the FACSCalibur flow cytometer determining and calculating a ratio of JC-1 aggregates (red fluorescence) to JC-1 monomers (green fluorescence) based on levels of MMP in each group.

[2] = test system: human bladder cancer cell line NTUB1; test: Trial (A): cytotoxic effect, IC50 by median-effect analysis; assay type: cell-based; conditions: NTUB1 cells; for IC50: mean ± SD; for cytotoxic effect against cancer cell: with reference to TABLE 2
From the text: For the sake of proving therapeutic effects of the derivatives of 18β-glycyrrhetinic acid of the present invention, including 10, 11, 13-17 and 21-25, in treating of cancer, human bladder cancer cell line NTUB1, human prostate cancer cell line PC3 cataloged as CRL-1435 (reference to J. Formosan Med. Assoc. 1992; 91:608-13), and immortalized normal human urothelial cells SV-HUC1 cataloged as CRL-9520 are purchased from American Type Culture Collection (ATCC; Rockville, USA) and maintained in a culturing medium respectively till at a preferable density to carry out a serial of trials (comprising trial A to G) for evaluating cytotoxicities of the derivatives of 18β-glycyrrhetinic acid against cancer cells, and mechanisms thereof.
In the present invention, the NTUB1 and the PC3 is but not limit to be maintained in RPMI 1640 medium supplemented 10% fetal bovine serum (FBS), 100 unit/mL penicillin-G, 100 μg/mL streptomycin, and 2 mM L-glutamine, yet the SV-HUC1 is maintained in F12 medium supplemented with 10% fetal bovine serum (FBS), 100 unit/mL penicillin-G, 100 μg/mL streptomycin, and 2 mM L-glutamine, culturing at 37° C. in a humidified atmosphere containing 5% CO2 till at a density of 70% per well, followed by repeatedly suspending cells in each well with an ethylene diamine tetra-acetic acid buffer (EDTA buffer; Merck) and counting cell numbers.
In the present invention, the IC50 values of each group are presented as mean±standard deviation (SD).

NTUB1 cells [3] = test: Trial (C): synergy with cisplatin, MTT assay; assay type: cell-based, human; conditions: NTUB1, 72 hours; for cytotoxic effect applied individually (FIGS. 7, 8): single agent; for synergy with cisplatin (FIGS. 7, 8): 1-50 μM compound with 5/10 μM cisplatin
Procedure: Oncol: Semin. Orig. Invest. by maintaining the NTUB1 cells in various condition of medium (with reference to TABLE 3) at 37° C. for 72 hours, and determining cytotoxicities of each medium via MTT assay. In the trial (C), the viability rates of NTUB1 cells […] are also determined by the absorbance spectrometry at 540 nm with a MRX (DYNEXCO) microplate according to trial (B).

NTUB1 cells [4] = test: Trial (E): cell cycle progression by flow cytometry (propidium iodide); assay type: cell-based, human; set-up: Sub-G1 / G1: unit not given here; conditions: 50 μM, 24 hours, NTUB1
Procedure: In order to determine a relationship between the derivatives of 18β-glycyrrhetinic acid of the present invention and cell cycle arrest, trial (E) is carried out by analyzing cell cycle progression by flow cytometry. […] After that, cell cycle progression of each group is determined respectively by incubating with 50 μg/mL propidium iodide (Sigma, Co) and 50 μg/mL RNase A (Sigma, Co) in PBS at room temperature for 30 min, and analyzing by FACScan flow cytometer and Cell Quest sofeware.

Row | Structure (SMILES) | IC50 [2] | also measured
1 | N#CC(C#N)=NNc1cccc(Cl)c1 [CCCP, carbonyl cyanide 3-chlorophenylhydrazone, reference compound] | – | R1 (%) (NTUB1 cells [1]): 52.06%
2 | C=C(C)[C@@H]1CC[C@]2(C)[C@H](C(=O)C=C3[C@@H]4C[C@@](C)(C(=O)NC(C)C)CC[C@]4(C)CC[C@]32C)[C@@]1(C)CCC(=O)NCCC [Compound 24, 30-isopropyl carbamoyl-11-oxo-18β-3,4-seco-olean-4(23), 12-dien 3-propyl carbamate] | > 50 µM | –
3 | CC1(C(=O)OCc2ccccc2)CCC2(C)CCC3(C)C(=CC(=O)C4C5(C)CCC(=O)OC(C)(C)C5CCC43C)C2C1 (stereo not drawn) [Compound 7] | 57.6 ± 8.8 µM | –
4 | C=C(C)[C@@H]1CC[C@]2(C)[C@H](C(=O)C=C3[C@@H]4C[C@@](C)(C(=O)OCc5ccccc5)CC[C@]4(C)CC[C@]32C)[C@@]1(C)CCC(=O)OC [Compound 12, 3,4-seco-11-oxo-18β-olean-4(23), 12-dien-3,30-dioic acid 3-methyl-30-benzyl ester] | 9.41 ± 2.72 µM | cytotoxic effect against cancer cell [2]: significantly suppress the growth of cancer cells with a lower concentrate; cytotoxic effect applied individually (FIGS. 7, 8) (NTUB1 cells [3]): cytotoxic effects against to cancer cells; synergy with cisplatin (FIGS. 7, 8) (NTUB1 cells [3]): dramatic synergy
5 | CC(C)NC(=O)C1(C)CCC2(C)CCC3(C)C(=CC(=O)C4C5(C)CCC(=O)OC(C)(C)C5CCC43C)C2C1 (stereo not drawn) [Compound 18] | 25.7 ± 1.81 µM | –
6 | CC1(C(=O)O)CCC2(C)CCC3(C)C(=CC(=O)C4C5(C)CCC(=O)C(C)(C)C5CCC43C)C2C1 (stereo not drawn) [Compound 2] | 18.6 ± 1.64 µM | –
7 | C=C(C)[C@@H]1CC[C@]2(C)[C@H](C(=O)C=C3[C@@H]4C[C@@](C)(C(=O)NC(C)C)CC[C@]4(C)CC[C@]32C)[C@@]1(C)CCC(=O)OC(C)C [Compound 22, 30-isopropyl carbamoyl-11-oxo-18β-3,4-seco-olean-4(23),12-dien 3-isopropyl ester] | 29.2 ± 26.6 µM | –
8 | C=C(C)[C@@H]1CC[C@]2(C)[C@H](C(=O)C=C3[C@@H]4C[C@@](C)(C(=O)NC(C)C)CC[C@]4(C)CC[C@]32C)[C@@]1(C)CCC(=O)O [Compound 19] | 17.5 ± 2.11 µM | –
9 | CC1(C(=O)Nc2ccccc2)CCC2(C)CCC3(C)C(=CC(=O)C4C5(C)CCC(=O)OC(C)(C)C5CCC43C)C2C1 (stereo not drawn) [Compound 26] | 16 ± 5.3 µM | –
10 | COC(=O)C1(C)CCC2(C)CCC3(C)C(=CC(=O)C4C5(C)CCC(=O)C(C)(C)C5CCC43C)C2C1 (stereo not drawn) [Compound 3] | 56.5 ± 14.3 µM | –
11 | CC1(C(=O)OCc2ccccc2)CCC2(C)CCC3(C)C(=CC(=O)C4C5(C)CCC(=O)C(C)(C)C5CCC43C)C2C1 (stereo not drawn) [Compound 4] | 20.2 ± 5.1 µM | –
12 | C=C(C)[C@@H]1CC[C@]2(C)[C@H](C(=O)C=C3[C@@H]4C[C@@](C)(C(=O)OCc5ccccc5)CC[C@]4(C)CC[C@]32C)[C@@]1(C)CCC(=O)O [Compound 9] | 2.34 ± 0.28 µM | cytotoxic effect against cancer cell [2]: significantly suppress the growth of cancer cells with a lower concentrate
13 | C=C(C)[C@@H]1CC[C@]2(C)[C@H](C(=O)C=C3[C@@H]4C[C@@](C)(C(=O)OCc5ccccc5)CC[C@]4(C)CC[C@]32C)[C@@]1(C)CCC(=O)NC(C)C [Compound 17, 3-isopropylcarbamoyl-11-oxo-18β-3,4-seco-olean-4(23), 12-dien 30-benzyl ester] | 30.1 ± 2.41 µM | –
14 | C=C(C)C1CCC2(C)C(C(=O)C=C3C4CC(C)(C(=O)OCc5ccccc5)CCC4(C)CCC32C)C1(C)CCC(=O)OCC (stereo not drawn) [Compound 13, 3,4-seco-11-oxo-18β-olean-4(23),12-dien-3,30-dioic acid 3-ethyl,30-benzyl ester] | 27.8 ± 6.48 µM | –
15 | COC(=O)C1(C)CCC2(C)CCC3(C)C(=CC(=O)C4C5(C)CCC(=O)OC(C)(C)C5CCC43C)C2C1 (stereo not drawn) [Compound 6] | 24.3 ± 3.98 µM | –
16 | C=C(C)[C@@H]1CC[C@]2(C)[C@H](C(=O)C=C3[C@@H]4C[C@@](C)(C(=O)NC(C)C)CC[C@]4(C)CC[C@]32C)[C@@]1(C)CCC(=O)OC [Compound 20, 30-Isopropylcarbamoyl-11-oxo-18β-3,4-seco-olean-4(23),12-diene 3-methyl ester] | 13.1 ± 5.27 µM | cytotoxic effect applied individually (FIGS. 7, 8) (NTUB1 cells [3]): cytotoxic effects against to cancer cells; synergy with cisplatin (FIGS. 7, 8) (NTUB1 cells [3]): dramatic synergy
17 | C=C(C)[C@@H]1CC[C@]2(C)[C@H](C(=O)C=C3[C@@H]4C[C@@](C)(C(=O)OCc5ccccc5)CC[C@]4(C)CC[C@]32C)[C@@]1(C)CCC(=O)NCC [Compound 15, 3-ethyl carbamoyl-11-oxo-18β-3,4-seco-olean-4(23),12-dien-30-benzyl ester] | 42.7 ± 11.2 µM | –
18 | C=C(C)[C@@H]1CC[C@]2(C)[C@H](C(=O)C=C3[C@@H]4C[C@@](C)(C(=O)OC)CC[C@]4(C)CC[C@]32C)[C@@]1(C)CCC(=O)O [Compound 8] | 20.7 ± 4.97 µM | –
19 | C=C(C)C1CCC2(C)C(C(=O)C=C3C4CC(C)(C(=O)OCc5ccccc5)CCC4(C)CCC32C)C1(C)CCC(=O)OC(C)C (stereo not drawn) [Compound 14, 3,4-seco-11-oxo-18β-olean-4(23),12-dien-3,30. dioic acid 3-isopropyl-30-benzyl ester] | 18.2 ± 1.58 µM | –
20 | CC1(C(=O)O)CCC2(C)CCC3(C)C(=CC(=O)C4C5(C)CCC(=O)OC(C)(C)C5CCC43C)C2C1 (stereo not drawn) [Compound 5] | 73.5 ± 35.1 µM | –
21 | C=C(C)[C@@H]1CC[C@]2(C)[C@H](C(=O)C=C3[C@@H]4C[C@@](C)(C(=O)OC)CC[C@]4(C)CC[C@]32C)[C@@]1(C)CCC(=O)NC(C)C [Compound 11, 3-isopropyl carbamoyl-11-oxo-18β-3,4-seco-olean-4(23),12-dien 30-methyl ester] | 31.4 ± 0.55 µM | –
22 | C=C(C)[C@@H]1CC[C@]2(C)[C@H](C(=O)C=C3[C@@H]4C[C@@](C)(C(=O)Nc5ccccc5)CC[C@]4(C)CC[C@]32C)[C@@]1(C)CCC(=O)O [Compound 27] | 3.31 ± 0.61 µM | cytotoxic effect against cancer cell [2]: significantly suppress the growth of cancer cells with a lower concentrate
23 | C=C(C)[C@@H]1CC[C@]2(C)[C@H](C(=O)C=C3[C@@H]4C[C@@](C)(C(=O)OCc5ccccc5)CC[C@]4(C)CC[C@]32C)[C@@]1(C)CCC(=O)NCCC [Compound 16, 3-propylcarbamoyl-11-oxo-18β-3,4-seco-olean-4(23),12-dien 30-benzyl ester] | 49.4 ± 11.5 µM | –
24 | OO [Compound H2O2, H2O2, reference compound] | – | G1 (NTUB1 cells [4]): 27.15; G2/M (NTUB1 cells [4]): 20.18; S (NTUB1 cells [4]): 23.84; Sub-G1 (NTUB1 cells [4]): 9.48
25 | C=C(C)C1CCC2(C)C(C(=O)C=C3C4CC(C)(C(=O)OC)CCC4(C)CCC32C)C1(C)CCC(=O)OC(C)C (stereo not drawn) [Compound 10, 3,4-seco-11-oxo-18β-olean-4(23),12-dien-3,30-dioic acid 3-isopropyl 30-methyl, ester] | 25.3 ± 2.28 µM | –
26 | CC1(C)[C@@H](O)CC[C@]2(C)[C@H]3C(=O)C=C4[C@@H]5C[C@@](C)(C(=O)O)CC[C@]5(C)CC[C@@]4(C)[C@]3(C)CC[C@@H]12 [Compound 1, 18β-glycyrrhetinic acid] | 27.3 ± 5.17 µM | –
